Experimental data: patent US20230399378A1, “PEPTIDE-BASED DELIVERY OF AGENTS” (THE FLOREY INSTITUTE OF NEUROSCIENCE AND MENTAL HEALTH, priority 2020, published 2023)
Square brackets hold non-standard residues; d marks the D form. Side chains are listed from the residue outwards. Peptide text beside a SMILES is read from it. PMO = not defined here; AEEA = NCCOCCOCC(=O)O; Ahx = NCCCCCC(=O)O; Mpa = O=C(O)CCS

Key:
[1] = Serum stability in 50% human serum at 37 °C (RP-HPLC, one-phase decay half-life); conditions: for half-life at 500 µM: human, serum (50% human serum)
Procedure: Serum stability analysis was conducted for each peptide (7×50 nmol) shown in Table 3 in 50% human serum (100 μL) at 37° C. At the end of each time point (0, 10, 30, 60, 120, 240, and 480 min), 1 M guanidine hydrochloride solution (200 μL) and ice-cold acetonitrile (600 μL) were added, and the serum-peptide solution was centrifuged at 14000 g for 10 min. The supernatant was lyophilised and redissolved in water (200 μL). All samples were analysed by RP-HPLC in the presence of phenol (50 nmol) as an internal standard, using water and acetonitrile containing 0.1% TFA, with a gradient of 10-80% acetonitrile over 30 min, and a flow rate of 1.5 mL/min. The percentage of peptide remaining was measured based on the area under curve. The percentage of peptide remaining versus time data was fitted to a non-linear one-phase exponential decay model in GraphPad Prism 9.2.0 to determine the half-life for each peptide.

SMN2 = SMN2 splice-switching for exon 7 inclusion by RT-qPCR in SMA Type I patient-derived fibroblasts (Example 2); type: cell-based, human; conditions: for exon-7 inclusion activity, change in words: 0.5 μM and 1 μM, versus comparator; for level of exon-7 inclusion activity (full length SMN2/HPRT1, normalised to untreated control set to 1): treated 4 hrs, then 20 hrs growth medium, mean±SEM
From the text: FIG. 3. (A) SMN2 pre-mRNA exon-7 skipping and production of 80-90% SMN2Δ7 mRNA transcripts. Peptide-PMO binding to Intron-splicing silencer (ISS-N1) and restoration of SMN2 splicing and production of full-length SMN2 mRNA transcripts. The positions of forward and reverse primers highlighted on full-length mRNA. (B)-(C) Effect of administration of peptides linked to PMO for SMN2 exon 7 inclusion, measured as change in the level of full length SMN2/HPRT1 in SMA patient-derived fibroblasts, each at two concentrations, 0.5 μM and 1 μM (or 1 μM and 5 μM in the case of PMO alone). UT, untreated. (B) For PMO constructs, from left to right: PMO; ApoE(141-150)-PMO; ApoE(133-150)-PMO. (C) For PMO constructs, from left to right: PMO; HA2-PMO; GALA-PMO; NLS-PMO; ApoE(141-150)-PMO; HA2-ApoE(141-150)-PMO; GALA-ApoE(141-150)-PMO; NLS-ApoE(141-150)-PMO; H4-ApoE(141-150)-PMO; A4-ApoE(141-150)-PMO. *P<0.05,**P<0.001, ***P<0.0001 cf. Untreated (control) and PMO (1 and 5 μM); #P<0.001 cf. GALA-/NLS-/H4-ApoE(141-150)-PMO (1 μM), ^<0.001 cf. ApoE(133-150)-PMO (0.5 and 1 μM), ^OP<0.001 cf. ApoE(141-150)-PMO (1 μM), ^&P<0.05 cf.
The inventors then evaluated cellular uptake and activity of these peptide-PMO conjugates in SMA Type I patient-derived fibroblasts with two copies of SMN2. Efficiency of uptake was assessed by RT-qPCR using SMN2 splice-switching for exon 7 inclusion (see FIG. 3A).
SMA Type I patient-derived fibroblasts (SMN2^+/+, GM03813, Coriell Cell Repositories) were maintained in Dulbecco's Modified Eagle's Medium (DMEM), supplemented with 10% foetal bovine serum (FBS), 1% Penicillin/Streptomycin and 1% L-glutamine (L-glu) at 37° C. Cells were plated in 6-well plates at a density of 3×10^5/well in 6 well plates one day prior to treatment with PMO and peptide-PMO conjugates. Cells used were from passage 8-22. PMO and the peptide-PMO conjugates were dissolved in nuclease-free water and diluted to appropriate concentrations in Opti-MEM reduced serum medium. Cells were treated for 4 hrs at 37° C. The transfection medium was then removed and replaced with growth medium in which the cells were incubated for 20 hrs.
Cells were washed with PBS and total cellular RNA was extracted using Trizol (TRI Reagent®, Sigma) according to the manufacturer's instructions (Life Technologies). 400 ng purified RNA was reverse transcribed into cDNA using BioRad iScript Reverse Transcription Supermix kit according to the manufacturer's instructions. The reverse transcription was performed using the Veriti Thermal Cycler (ThermoFisher Scientific) with the thermal cycling conditions: 25° C. for 5 min, 46° C. for 20 min, 95° C. for 1 min followed by a 4° C. holding period.
Quantitative PCR (20 ng cDNA/well) was carried out in a 96-well plate in triplicate using SsoAdvanced Universal SYBR Green Supermix on a Biorad CFX96 Touch™ Real-Time PCR detection system. The amplification was carried out using full-length SMN2-specific primers: Ex-6 Forward 5′-[…]-3′ (SEQ ID NO:10) and Ex7-8 reverse 5′[…]-3′ (SEQ ID NO:11). Human HPRT1 was used as the internal reference gene with forward primer sequence 5′-[…]-3′ (SEQ ID NO:12) and reverse primer sequence 5′-[…]-3′ (SEQ ID NO:13). The ΔΔCt method was used to correct the Ct values against the HPRT1 Ct values. The values obtained were normalised to the untreated control values which were set to 1. Statistical analysis was carried out using one-way ANOVA with post-hoc Bonferroni for multiple groups comparison (GraphPad Prism V.8, 2018). All data are expressed as mean±SEM from at least three independent experiments with p<0.05 considered significant.

CC[C@H](C)[C@H](NC(=O)[C@H](C)NC(=O)[C@H](Cc1c[nH]cn1)NC(=O)[C@H](Cc1ccccc1)NC(=O)[C@H](CC(C)C)NC(=O)CNC(C)=O)C(=O)N[C@@H](C)C(=O)N[C@@H](Cc1c[nH]cn1)C(=O)N[C@@H](Cc1ccccc1)C(=O)N[C@H](C(=O)N[C@@H](Cc1c[nH]cn1)C(=O)NCC(=O)NCC(=O)N[C@@H](Cc1c[nH]c2ccccc12)C(=O)N[C@@H](Cc1c[nH]cn1)C(=O)NCCOCCOCC(=O)N[C@@H](CCCCNC(=O)COCCOCCNC(=O)CCS)C(=O)NCCOCCOCC(=O)N[C@@H](CC(C)C)C(=O)N[C@@H](CCCNC(=N)N)C(=O)N[C@H](C(=O)N[C@@H](CCCNC(=N)N)C(=O)N[C@@H](CC(C)C)C(=O)N[C@@H](C)C(=O)N[C@@H](CO)C(=O)N[C@@H](Cc1c[nH]cn1)C(=O)N[C@@H](CC(C)C)C(=O)N[C@@H](CCCNC(=N)N)C(=O)N[C@@H](CCCCN)C(=O)N[C@@H](CC(C)C)C(=O)N[C@@H](CCCNC(=N)N)C(=O)N[C@@H](CCCCN)C(=O)N[C@@H](CCCNC(=N)N)C(=O)N[C@@H](CC(C)C)C(=O)N[C@@H](CC(C)C)C(=O)N[C@@H](CCCNC(=N)N)C(=O)O)C(C)C)[C@@H](C)CC [Br-HA2-(TPA)-ApoE(133-150), Ac-GLFHAIAHFIHGGWH-mPEG-K(mPEG-TPA)-mPEG-LRVRLASHLRKLRKRLLR] (Ac-GLFHAIAHFIHGGWH[AEEA]K([AEEA-Mpa])[AEEA]LRVRLASHLRKLRKRLLR-OH)
half-life at 500 µM [1]: 60 min

CC[C@H](C)[C@H](NC(=O)[C@H](C)NC(=O)[C@H](Cc1c[nH]cn1)NC(=O)[C@H](Cc1ccccc1)NC(=O)[C@H](CC(C)C)NC(=O)CNC(C)=O)C(=O)N[C@@H](C)C(=O)N[C@@H](Cc1c[nH]cn1)C(=O)N[C@@H](Cc1ccccc1)C(=O)N[C@H](C(=O)N[C@@H](Cc1c[nH]cn1)C(=O)NCC(=O)NCC(=O)N[C@@H](Cc1c[nH]c2ccccc12)C(=O)N[C@@H](Cc1c[nH]cn1)C(=O)NCCOCCOCC(=O)N[C@@H](CCCCNC(=O)COCCOCCNC(=O)CCS)C(=O)NCCOCCOCC(=O)N[C@@H](CC(C)C)C(=O)N[C@@H](CCCNC(=N)N)C(=O)N[C@@H](CCCCN)C(=O)N[C@@H](CC(C)C)C(=O)N[C@@H](CCCNC(=N)N)C(=O)N[C@@H](CCCCN)C(=O)N[C@@H](CCCNC(=N)N)C(=O)N[C@@H](CC(C)C)C(=O)N[C@@H](CC(C)C)C(=O)N[C@@H](CCCNC(=N)N)C(=O)O)[C@@H](C)CC [Br-HA2-(TPA)-ApoE(141-150), Ac-GLFHAIAHFIHGGWH-mPEG-K(mPEG-TPA)-mPEG-LRKLRKRLLR] (Ac-GLFHAIAHFIHGGWH[AEEA]K([AEEA-Mpa])[AEEA]LRKLRKRLLR-OH)
half-life at 500 µM [1]: 36 min

CC[C@@H](C)[C@@H](NC(=O)[C@@H](C)NC(=O)[C@@H](Cc1c[nH]cn1)NC(=O)[C@@H](Cc1ccccc1)NC(=O)[C@H](NC(=O)[C@@H](Cc1c[nH]cn1)NC(=O)CNC(=O)CNC(=O)[C@@H](Cc1c[nH]c2ccccc12)NC(=O)[C@@H](Cc1c[nH]cn1)NC(C)=O)[C@H](C)CC)C(=O)N[C@H](C)C(=O)N[C@H](Cc1c[nH]cn1)C(=O)N[C@H](Cc1ccccc1)C(=O)N[C@H](CC(C)C)C(=O)NCC(=O)NCCOCCOCC(=O)N[C@@H](CCCCNC(=O)COCCOCCNC(=O)CCS)C(=O)NCCOCCOCC(=O)N[C@H](CCCNC(=N)N)C(=O)N[C@H](CC(C)C)C(=O)N[C@H](CC(C)C)C(=O)N[C@H](CCCNC(=N)N)C(=O)N[C@H](CCCCN)C(=O)N[C@H](CCCNC(=N)N)C(=O)N[C@H](CC(C)C)C(=O)N[C@H](CCCCN)C(=O)N[C@H](CCCNC(=N)N)C(=O)N[C@H](CC(C)C)C(=O)N[C@H](Cc1c[nH]cn1)C(=O)N[C@H](CO)C(=O)N[C@H](C)C(=O)N[C@H](CC(C)C)C(=O)N[C@H](CCCNC(=N)N)C(=O)N[C@@H](C(=O)N[C@H](CCCNC(=N)N)C(=O)N[C@H](CC(C)C)C(=O)O)C(C)C [RI Br-HA2-(TPA)-ApoE(133-150), Ac-hwgghifhaiahflg-mPEG-K(mPEG-TPA)-mPEG-rllrkrlkrlhsalrvrl] (Ac-[dH][dW]GG[dH][dI][dF][dH][dA][dI][dA][dH][dF][dL]G[AEEA]K([AEEA-Mpa])[AEEA][dR][dL][dL][dR][dK][dR][dL][dK][dR][dL][dH][dS][dA][dL][dR][dV][dR][dL]-OH)
proteolytic stability compared to the parent L-peptides ([1]; 50% human serum, 37° C.): significantly higher proteolytic stability
half-life at 500 µM [1]: 96 min

CC[C@@H](C)[C@@H](NC(=O)[C@@H](C)NC(=O)[C@@H](Cc1c[nH]cn1)NC(=O)[C@@H](Cc1ccccc1)NC(=O)[C@H](NC(=O)[C@@H](Cc1c[nH]cn1)NC(=O)CNC(=O)CNC(=O)[C@@H](Cc1c[nH]c2ccccc12)NC(=O)[C@@H](Cc1c[nH]cn1)NC(C)=O)[C@H](C)CC)C(=O)N[C@H](C)C(=O)N[C@H](Cc1c[nH]cn1)C(=O)N[C@H](Cc1ccccc1)C(=O)N[C@H](CC(C)C)C(=O)NCC(=O)NCCOCCOCC(=O)N[C@@H](CCCCNC(=O)COCCOCCNC(=O)CCS)C(=O)NCCOCCOCC(=O)N[C@H](CCCNC(=N)N)C(=O)N[C@H](CC(C)C)C(=O)N[C@H](CC(C)C)C(=O)N[C@H](CCCNC(=N)N)C(=O)N[C@H](CCCCN)C(=O)N[C@H](CCCNC(=N)N)C(=O)N[C@H](CC(C)C)C(=O)N[C@H](CCCCN)C(=O)N[C@H](CCCNC(=N)N)C(=O)N[C@H](CC(C)C)C(=O)O [RI Br-HA2-(TPA)-ApoE(141-150), Ac-hwgghifhaiahflg-mPEG-K(mPEG-TPA)-mPEG-rllrkrlkrl] (Ac-[dH][dW]GG[dH][dI][dF][dH][dA][dI][dA][dH][dF][dL]G[AEEA]K([AEEA-Mpa])[AEEA][dR][dL][dL][dR][dK][dR][dL][dK][dR][dL]-OH)
half-life at 500 µM [1]: 18 min

Ac-AAAA-X-LRKLRKRLLR-X-C-PMO [A4-ApoE(141-150)-PMO]
exon-7 inclusion activity, change in words (SMN2): significant decrease

Ac-HHHH-X-LRKLRKRLLR-X-C-PMO [H4-ApoE(141-150)-PMO]
level of exon-7 inclusion activity (full length SMN2/HPRT1, normalised to untreated control set to 1) (SMN2; 0.5 μM): 1.81±0.02
level of exon-7 inclusion activity (full length SMN2/HPRT1, normalised to untreated control set to 1) (SMN2; 1 μM): 2.0±0.05

Ac-VQRKRQKLMP-X-LRKLRKRLLR-X-C-PMO [NLS-ApoE(141-150)-PMO]
exon-7 inclusion activity, change in words (SMN2): significant increase in the activity

Ac-WEAALAEALAEALAEHLAEALAEALEALAA-X-C-PMO (Ac-WEAALAEALAEALAEHLAEALAEALEALAA[Ahx]C-{PMO}; reading uncertain; also: printed as Ac-WEAALAEALAEALAEHLAEALAEALEALAA-X-C-PMO) [GALA-PMO]
exon-7 inclusion activity, change in words (SMN2): no significant increase

Ac-WEAALAEALAEALAEHLAEALAEALEALAA-X-LRKLRKRLLR-X-C-PMO [GALA-ApoE(141-150)-PMO]
exon-7 inclusion activity, change in words (SMN2): significant increase in the activity
level of exon-7 inclusion activity (full length SMN2/HPRT1, normalised to untreated control set to 1) (SMN2; 0.5 μM): 1.41±0.04
level of exon-7 inclusion activity (full length SMN2/HPRT1, normalised to untreated control set to 1) (SMN2; 1 μM): 2.14±0.14

Myr-LRKLRKRLLR-X-C-PMO [Myr-ApoE(141-150)-PMO]
exon-7 inclusion activity (full length SMN2/HPRT1, normalised to untreated control set to 1) (SMN2; concentration not given, compared to acetylated counterpart): 1.91±0.03
